Our source for the T/C values is PubChem BioAssay AID328 (DTP/NCI, 2004).

SMILES strings stand for the structures. Several values for one entry are separate records, joined by “and”; a condition that tells them apart may be missing. Equal entries are not always repeated. Inconclusive results and toxic doses are left out. Residues, ends and D or L forms follow the SMILES beside them.

In this assay the test system is BDF1 mice, P388 leukemia ip, median survival T/C. In words: NCI In Vivo Anticancer Drug Screen. Data for tumor model P388 Leukemia (intraperitoneal) in B6D2F1 (BDF1) mice. The conditions noted are these: endpoint: median survival time, higher = longer survival. In outline: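 Survival ratio, drug arm over vehicle arm, in mice with a transplanted tumour.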
The mark [1] stands for this setting: dose: 25.0 mg/kg/injection, schedule: Q04DX003 (ip), vehicle: saline.
The mark [2] stands for this setting: dose: 50.0 mg/kg/injection, schedule: Q04DX003 (ip), vehicle: saline.
[3] abbreviates: dose: 50.0 mg/kg/injection, schedule: Q01DX009 (ip), vehicle: saline with Tween-80.
The mark [4] stands for this setting: dose: 100.0 mg/kg/injection, schedule: Q01DX009 (ip), vehicle: saline with Tween-80.
[5] abbreviates: dose: 200.0 mg/kg/injection, schedule: Q01DX009 (ip), vehicle: saline with Tween-80.
The mark [6] stands for this setting: dose: 400.0 mg/kg/injection, schedule: Q01DX009 (ip), vehicle: saline with Tween-80.
Setting [7] is: dose: 50.0 mg/kg/injection, schedule: Q01DX009 (ip), vehicle: saline.
Where [8] appears, read: dose: 100.0 mg/kg/injection, schedule: Q01DX009 (ip), vehicle: saline.
[9] abbreviates: dose: 200.0 mg/kg/injection, schedule: Q01DX009 (ip), vehicle: saline.
[10] abbreviates: dose: 50.0 mg/kg/injection, schedule: Q04DX003 (ip), vehicle: Klucel (hydroxypropylcellulose) (HPC).
[11] abbreviates: dose: 100.0 mg/kg/injection, schedule: Q04DX003 (ip), vehicle: Klucel (hydroxypropylcellulose) (HPC).

`CCn1cnc2c(SC)ncnc21`: the T/C is, setting by setting: (dose: 18.75 mg/kg/injection, schedule: Q01DX009 (ip), vehicle: saline) 109 % of control; under setting [1], 86 % of control; (dose: 37.5 mg/kg/injection, schedule: Q01DX009 (ip), vehicle: saline) 100 % of control; under setting [2], 104 % of control; (dose: 75.0 mg/kg/injection, schedule: Q01DX009 (ip), vehicle: saline) 104 % of control; (dose: 75.0 mg/kg/injection, schedule: Q04DX003 (ip), vehicle: Klucel (hydroxypropylcellulose) (HPC)) 95 % of control.

For the compound `NC(=O)CC(NC(=O)OCc1ccccc1)C(=O)OCc1ccccc1` (stereo not given), the T/C under setting [3] was 109 % of control; the T/C under setting [4] was 100 % of control; the T/C (dose: 100.0 mg/kg/injection, schedule: Q04DX003 (ip), vehicle: saline with Tween-80) is 99 % of control; the T/C under setting [5] was 93 % of control; the T/C (dose: 200.0 mg/kg/injection, schedule: Q04DX003 (ip), vehicle: saline with Tween-80) is 102 % of control; the T/C under setting [6] was 103 % of control. For the same compound, the T/C (dose: 400.0 mg/kg/injection, schedule: Q04DX003 (ip), vehicle: saline with Tween-80) was 90 % of control.

For the compound `NCCCCC(N)C(=O)NC(CCCN=C(N)N)C(N)=O` (stereo not drawn) (H-Lys-Arg-NH2; configuration not given here), the T/C was 115 % of control (dose: 6.25 mg/kg/injection, schedule: Q04DX003 (ip), vehicle: water); 112 % of control (dose: 12.5 mg/kg/injection, schedule: Q04DX003 (ip), vehicle: water); 101 % of control (dose: 25.0 mg/kg/injection, schedule: Q01DX009 (ip), vehicle: water); 104 % of control (dose: 25.0 mg/kg/injection, schedule: Q04DX003 (ip), vehicle: water); 108 % of control (dose: 50.0 mg/kg/injection, schedule: Q01DX009 (ip), vehicle: water); 97 % of control (dose: 50.0 mg/kg/injection, schedule: Q04DX003 (ip), vehicle: water). For the same compound, the T/C is 111 % of control (dose: 100.0 mg/kg/injection, schedule: Q01DX009 (ip), vehicle: water); 104 % of control (dose: 100.0 mg/kg/injection, schedule: Q04DX003 (ip), vehicle: water); 106 % of control (dose: 200.0 mg/kg/injection, schedule: Q01DX009 (ip), vehicle: water); 106 % of control (dose: 400.0 mg/kg/injection, schedule: Q01DX009 (ip), vehicle: water).

For `CCN1CC2(CO)CCC(OC)C34C5CC6C(OC)CC(O)(C5C6OC)C(O)(C(OC)C23)C14` (stereo not given), the T/C by setting is: under setting [3], 100 % of control; under setting [4], 103 % of control; under setting [5], 100 % of control.

For `CS(=O)(=O)C(F)(F)C(F)(F)C(F)(F)C(F)(F)F`, the T/C is, setting by setting: under setting [7], 101 % of control; under setting [8], 101 % of control; under setting [9], 106 % of control.

For `COC1(C)CCC(C=O)C(C#N)(C#N)C1(C#N)C#N` (stereo not given), the T/C reads like this: (dose: 12.5 mg/kg/injection, schedule: Q01DX001 (ip), vehicle: saline with Tween-80) 98 % of control; (dose: 25.0 mg/kg/injection, schedule: Q01DX001 (ip), vehicle: saline with Tween-80) 100 % of control; (dose: 50.0 mg/kg/injection, schedule: Q01DX001 (ip), vehicle: saline with Tween-80) 104 % of control.

Regarding `CCCCCCCCOC(=O)c1ccc(OP(=O)(N(C)C)N(C)C)cc1`, the T/C (dose: 12.5 mg/kg/injection, schedule: Q01DX009 (ip), vehicle: saline with Tween-80) was 99 % of control; the T/C (dose: 25.0 mg/kg/injection, schedule: Q01DX009 (ip), vehicle: saline with Tween-80) is 101 % of control; the T/C under setting [3] is 106 % of control and 124 % of control; the T/C under setting [5] was 94 % of control.

Take `CC1(C)N=C(N)N=C(N)N1c1ccc(OCc2ccc(C(=O)Nc3cccc(S(=O)(=O)F)c3)cc2)c(Cl)c1`: the T/C (dose: 6.25 mg/kg/injection, schedule: Q01DX009 (ip), vehicle: Klucel (hydroxypropylcellulose) (HPC)) is 206 % of control; the T/C (dose: 6.25 mg/kg/injection, schedule: Q04DX003 (ip), vehicle: Klucel (hydroxypropylcellulose) (HPC)) was 163 % of control; the T/C (dose: 12.5 mg/kg/injection, schedule: Q01DX009 (ip), vehicle: Klucel (hydroxypropylcellulose) (HPC)) was 247 % of control; the T/C (dose: 12.5 mg/kg/injection, schedule: Q04DX003 (ip), vehicle: Klucel (hydroxypropylcellulose) (HPC)) was 162 % of control and 184 % of control; the T/C (dose: 25.0 mg/kg/injection, schedule: Q01DX009 (ip), vehicle: Klucel (hydroxypropylcellulose) (HPC)) was 308 % of control; the T/C (dose: 25.0 mg/kg/injection, schedule: Q04DX003 (ip), vehicle: Klucel (hydroxypropylcellulose) (HPC)) is 186 % of control and 223 % of control. In addition, the T/C runs as follows: (dose: 50.0 mg/kg/injection, schedule: Q01DX009 (ip), vehicle: Klucel (hydroxypropylcellulose) (HPC)) 110 % of control; under setting [10], 263 % of control and 189 % of control; (dose: 100.0 mg/kg/injection, schedule: Q01DX009 (ip), vehicle: Klucel (hydroxypropylcellulose) (HPC)) 95 % of control; under setting [11], 95 % of control and 119 % of control.

As to `CCOc1ccn(CC(=O)Nc2nccs2)c(=O)n1`, the T/C (dose: 12.5 mg/kg/injection, schedule: Q01DX009 (ip), vehicle: saline) was 104 % of control; the T/C (dose: 25.0 mg/kg/injection, schedule: Q01DX009 (ip), vehicle: saline) is 95 % of control; the T/C under setting [7] is 104 % of control; the T/C under setting [2] is 114 % of control; the T/C under setting [8] was 104 % of control; the T/C under setting [9] was 100 % of control. In addition, the T/C (dose: 200.0 mg/kg/injection, schedule: Q04DX003 (ip), vehicle: saline) is 106 % of control; the T/C (dose: 400.0 mg/kg/injection, schedule: Q01DX009 (ip), vehicle: saline) is 94 % of control; the T/C (dose: 400.0 mg/kg/injection, schedule: Q04DX003 (ip), vehicle: saline) is 97 % of control.

As for `Cc1cc(C)c(CCc2cc(C)c(C)cc2C)cc1C`, the T/C is 95 % of control under setting [10]; 91 % of control under setting [11]; 87 % of control and 108 % of control (dose: 200.0 mg/kg/injection, schedule: Q04DX003 (ip), vehicle: Klucel (hydroxypropylcellulose) (HPC)).

Turning to `CCCC(C(=O)OCCN(CC)CC)(c1ccccc1)c1ccccc1`, the T/C (dose: 54.0 mg/kg/injection, schedule: Q01DX001 (ip), vehicle: saline) is 105 % of control; the T/C (dose: 90.0 mg/kg/injection, schedule: Q01DX001 (ip), vehicle: saline) was 104 % of control; the T/C (dose: 150.0 mg/kg/injection, schedule: Q01DX001 (ip), vehicle: saline) is 105 % of control.

With `Oc1cccc2cccnc12.[Cu+].[O-]c1cccc2cccnc12`, the T/C was 104 % of control (dose: 1.87 mg/kg/injection, schedule: Q01DX009 (ip), vehicle: saline); 90 % of control (dose: 2.75 mg/kg/injection, schedule: Q04DX003 (ip), vehicle: saline); 100 % of control (dose: 3.75 mg/kg/injection, schedule: Q01DX009 (ip), vehicle: saline); 100 % of control (dose: 5.5 mg/kg/injection, schedule: Q04DX003 (ip), vehicle: saline); 113 % of control (dose: 11.0 mg/kg/injection, schedule: Q04DX003 (ip), vehicle: saline); 100 % of control (dose: 16.0 mg/kg/injection, schedule: Q04DX003 (ip), vehicle: saline). Moreover, under setting [1], the T/C is 100 % of control.

In the case of `COc1ccc(/C=N/n2c(=O)[nH]nc(C)c2=O)c(OC)c1OC`, the T/C under setting [4] is 100 % of control, the T/C under setting [5] is 122 % of control and the T/C under setting [6] is 95 % of control.

As for `CN(C)c1ncnc2nsnc12`, the T/C (dose: 75.0 mg/kg/injection, schedule: Q04DX003 (ip), vehicle: saline with Tween-80) was 95 % of control.

For `Cc1ccc(S(=O)(=O)Oc2cc([N+](=O)[O-])ccc2N)cc1`, the T/C (dose: 100.0 mg/kg/injection, schedule: Q01DX001 (ip), vehicle: saline) is 109 % of control; the T/C (dose: 200.0 mg/kg/injection, schedule: Q01DX001 (ip), vehicle: saline) is 100 % of control; the T/C (dose: 400.0 mg/kg/injection, schedule: Q01DX001 (ip), vehicle: saline) is 104 % of control.

Consider `O=C(O)/C=N/NS(=O)(=O)/C=C/c1ccccc1`, for which the T/C is 155 % of control (dose: 50.0 mg/kg/injection, schedule: Q01DX009 (ip), vehicle: other) and 186 % of control (dose: 100.0 mg/kg/injection, schedule: Q01DX009 (ip), vehicle: other).

With `Clc1ccc(N=Cc2cccs2)cc1`, the T/C reads like this: under setting [3], 96 % of control; under setting [4], 102 % of control; under setting [5], 88 % of control.
